# Experimental data as given in US6337316B1, “Pharmaceutical compositions thereof, and methods of using same” (Applied Research Systems ARS Holding N.V., priority 1997, dated 2002).
# Read-outs that look alike come from different tables or passages of the source. Bridge positions count the residues as written; N and C are the ends. Ends that are not written are not given here. iodoacetamide‑alkyl = not defined here
# Assays:
# [1] = system: lymphocyte proliferation in the human MLR; type: cell-based; conditions: for Human MLR (ability to inhibit lymphocyte proliferation, cpm): peptide 12.5 to 100 μM, assays of 1/24, 1/31, 3/6, 4/17, 5/2, one symbol per assay; for effect on the human MLR in combination with CTLA-4Ig: CTLA-4Ig spiked in at 0.5 μg/ml (FIG. 8); for effect on the MLR, retest: two MLRs, peptide by itself, concentrations up to 200 μM
# Method: Whole blood from donors was obtained from Interstate Blood Bank, Memphis, Tenn. Blood specimens were handled in a biosafety level 2 containment facility as recommended for potentially infectious blood specimens in the CDC/NIH manual Biosafety in Microbiological and Biomedical Laboratories; 3rd edition, 1993, page 10. Peripheral blood mononuclear cells (PBMC) were separated from red blood cells and granulocytes by ficoll-hypaque purification. Whole peripheral blood was diluted 1:2 in PBS and 30 ml was overlayed onto 15 ml of ficoll-hypaque in 50 ml polypropylene tubes. The tubes were spun at 400×g for 30 min at 25° C. Following centrifugation, the interface between the upper plasma layer and the lower ficoll layer was collected, cells washed in RPMI-1640 2×, and viable counts determined using trypan blue. Cells to be used as responders in the assay were stored on ice until mitomycin C treatment of stimulator cells was completed.
# PBMC, isolated as described above, to be used as stimulators in the assay were adjusted to 2-4×10^6 cells/ml in complete medium (RPMI 1640 containing 10% heat-inactivated human AB serum, 2 mM glutamine, 50 μM 2-mercaptoethanol and 100 U/ml penicillin-100 μg/ml streptomycin), and treated with mitomycin C (25 μg/ml) for 30 min in a 37° C. water bath. Following treatment, cells were washed with S volumes of complete medium 3×, and viable counts determine using trypan blue. To set up autologous stimulation controls some responder cells were also treated with mitomycin C as mentioned above.
# Purified CTLA-4Ig fusion protein was produced, as described in Steurer et al. 1995, from a NS-1 cell line kindly donated by Dr. T. Strom (Beth Israel Hospital, Boston, Mass.) as a 1 mg/ml solution in sterile PBS. The protein was stored frozen at −80° C. Upon thawing, the aliquot was stored at 4° C. Purified peptides were lyophilized according to known procedures. Peptides were reconstituted in sterile PBS, pH 7.4 at 2 mM concentration, aliquoted in microfuge cubes and stored frozen at −20° C. For the assay, an aliquot of the peptide was thawed and diluted to 200 μM in complete medium.
# For the one-way allogeneic mixed lymphocyte response (MLR) assay, responder cells were plated at 10^6 cells/well, and stimulator cells at 5×10^4 cells/well in 96-well round bottom plates. Cells were incubated with serial dilutions of the anti-CD4 Ab Leu 3A (1 μg/ml-0.06 μg/ml) in triplicate, or an isotype-matched control Ab. Cyclosporin A at 1 μg/ml was used as an additional control.
# CTLA-4 Ig was serially diluted an.4 tested from 10 μg/ml to 0.15 μg/ml. Peptides were tested either directly or in the presence of a constant spiked-in dose of CTLA-4 Ig at 0.5 μg/ml. The plates were incubated at 37° C. in a humidified 5% CO2 atmosphere for 7 days.
# Proliferation of the cells was determined by pulsing the wells with ^3H-Tdr (1 μCi/well) for the last 18 h of the assay. Plates were harvested using a Tomtec -late harvester and the counts incorporated determined using a Wallac microbetaplate plus reader.
# A total of 34 peptides were tested for inhibition of lymphocyte proliferation in the human MLR. Each peptide was tested in a MLR at doses ranging from 12.5 to 100 μM. The activity of each peptide was identified by assigning a + and − tone peptide depending on its ability to inhibit lymphocyte proliferation in the MLR (cpms).
# [2] = system: binding of CTLA-4Ig to B7 on Cess B cells; experiment: CTLA-4Ig/B7 binding assay on Cess B cells by FACS; parameters: key to Binding Assay (effect on CTLA-4Ig binding to Cess B cells): −: no change in binding; +: a minor change of <10% in binding; ++: a change of >20% in binding; conditions: for Binding Assay (effect on CTLA-4Ig binding to Cess B cells): FACS, assays of 3/24, 3/25, 4/5, 4/25, one symbol per assay; for effect on CTLA-4Ig binding, retest in the Cess B binding assay: retest of positives from primary screening
# Method: +++ was assigned if the peptide tested gave >50% change in cpm in a dose dependent fashion. In addition to the MLR, these 34 peptides were also evaluated in a CTLA-4Ig/B7 binding assay in which the ability of these peptides to affect the binding of CTLA-4Ig to B7 on Cess B cells was examined by FACS analysis.
# As with the MLR, a + or − was assigned to each peptide depending on its ability to effect CTLA-4Ig binding to Cess B cells; where − represents no change in binding, + represents a minor change of <10% in binding, and a ++ represents a change of >20% in binding.
Substance,"Human MLR (ability to inhibit lymphocyte proliferation, cpm) [1]",Binding Assay (effect on CTLA-4Ig binding to Cess B cells) [2],other results
ADSQVTEV [AT 127.1],"−, −","+/−, +/−",
ADSQVTEV-OH [AT 124.1],"−, −","+, −",
"AT 199.2A: resynthesis of AT 199.1, refolding prolonged to 5 days at pH 10.0; fully cyclized version (RKCLMYPPPYYCHH; disulfide 3-12 (inferred); not fully specified (C-terminus))",,,"inhibition of the human MLR ([1]; 100 μM, another MLR): 25%; inhibition of the human MLR ([1]; 100 μM, one MLR): 50%; effect on the human MLR in combination with CTLA-4Ig [1]: additive"
"AT 199.2B: AT 199 treated with iodoacetamide, purely linear analog with alkylated cysteines (RKC(iodoacetamide‑alkyl)LMYPPPYYC(iodoacetamide‑alkyl)HH; not fully specified (C-terminus); reading uncertain)",,,"effect on the human MLR in combination with CTLA-4Ig [1]: no effect; inhibition of the MLR, in words ([1]; control and linear peptides compared with AT 199): no effect; inhibition of the human MLR ([1]; the MLR's, highest concentration (100 μM) tested): < 10%"
CDDSIC (disulfide 1-6 (inferred)) [AT 131.1],"+, −, −",,
CEYASPGKATEVC (disulfide 1-13 (inferred)) [AT 123.1],"−, −","+/−, −",
CKGLDSAVEC (disulfide 1-10 (inferred)) [AT 108.1],"−, −, −",−,
CKIEVMYPPPYC (disulfide 1-12 (inferred)) [AT 113.1],− (all concentrations of peptide tested gave <15% change in cpm),"−, −",
CKIEVMYPPPYLC (disulfide 1-13 (inferred)) [AT 114.1],Toxic,Toxic,
CKYSYNLFSREFC (disulfide 1-13 (inferred)) [AT 107.1],"−, +, +, −",,
CMYPPPYGKC (disulfide 1-10 (inferred)) [AT 110.1],− (all concentrations of peptide tested gave <15% change in cpm),"−, −",
CMYPPPYKAKC (disulfide 1-11 (inferred)) [AT 112.1],− (all concentrations of peptide tested gave <15% change in cpm),"−, −",
CMYPPPYYKAKC (disulfide 1-12 (inferred)) [AT 130.1],"−, −","−, −",
CMYPPPYYRGGKC (disulfide 1-13 (inferred)) [AT 129.1],"−, −",++ (a change of >20% in binding),
CMYPPQYGKC (disulfide 1-10 (inferred)) [AT 111.1],"−, +/−",−,
CMYPPYLRGGKC (disulfide 1-12 (inferred)) [AT 109.1],,"−, +",
CRQADSQVTEC (disulfide 1-11 (inferred)) [AT 128.1],"++, −",+ (a minor change of <10% in binding),"effect on the MLR, retest [1]: none of these peptide by themselves had any consistent effect; effect on CTLA-4Ig binding, retest in the Cess B binding assay [2]: no effect"

Substance,"Human MLR (ability to inhibit lymphocyte proliferation, cpm) [1]",Binding Assay (effect on CTLA-4Ig binding to Cess B cells) [2],other results
CSKTGFNC (disulfide 1-8 (inferred)) [AT 115.1],− (all concentrations of peptide tested gave <15% change in cpm),−,
CSPNQC (disulfide 1-6 (inferred)) [AT 135.1],"+/−, −",++ (a change of >20% in binding),"effect on the MLR, retest [1]: none of these peptide by themselves had any consistent effect; effect on CTLA-4Ig binding, retest in the Cess B binding assay [2]: no effect"
CSSGNQVC (disulfide 1-8 (inferred)) [AT 132.1],"+, −, −","+, −",
CSSPNQVC (disulfide 1-8 (inferred)) [AT 133.1],"++, +","++, −","effect on the MLR, retest [1]: none of these peptide by themselves had any consistent effect; effect on CTLA-4Ig binding, retest in the Cess B binding assay [2]: no effect"
ECASPGKATEVC (not fully specified (bridges); cysteine pairing not given here) [AT 118.1],− (all concentrations of peptide tested gave <15% change in cpm),,
HVAQPA [AT 136.1],"++, +, −","+++, +","effect on the MLR, retest [1]: none of these peptide by themselves had any consistent effect; effect on CTLA-4Ig binding, retest in the Cess B binding assay [2]: no effect"
HVEQPA [AT 137.1],"−, +","+/−, −",
HVEQPA-OH [AT 125.1],"−, −","−, +",
KCSYNLFSREFC (not fully specified (bridges); cysteine pairing not given here) [AT 106.1],"++, +, +, +/−","++, ++","effect on the MLR, retest [1]: none of these peptide by themselves had any consistent effect; effect on CTLA-4Ig binding, retest in the Cess B binding assay [2]: no effect"
KILVKQS [AT 119.1],"−, +/−",−,
KILVKQS-OH [AT 121.1],"+/−, −",,
KYLVKQS [AT 120.1],"−, +/−",−,
KYLVKQS-OH [AT 122.1],"−, −","+, −",
LDSAVEV [AT 116.1],− (all concentrations of peptide tested gave <15% change in cpm),−,
LDSAVEV-OH [AT 117.1],− (all concentrations of peptide tested gave <15% change in cpm),+ (a minor change of <10% in binding),
NECTFCDD (not fully specified (bridges); cysteine pairing not given here) [AT 197.1],"−, −, −","−, −, −",
